Test results from patent US20250243180A1, “TARGETED PROTEIN DEGRADATION” (Monte Rosa Therapeutics AG, priority 2023, published 2025).
Like-named read-outs stand apart in the source and are kept apart here.

What was measured:
[1] = target: CRBN-DDB1 (Homo sapiens (Human), UniProt Q96SW2); experiment: Compound binding to CRBN by HTRF assay
Summary of the method: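 Ki calculated via Cheng-Prusoff from geometric-mean EC50 values, after normalizing the HTRF ratio to lenalidomide (active) and DMSO (neutral) controls. Compounds (11 points, 1:3 steps) incubated 30 min at ambient temperature with CRBN-DDB1 2.5 nM, anti-His Tb cryptate and Cy5-thalidomide tracer 100 nM.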

[2] = target: NEK7 (Homo sapiens (Human), UniProt Q8TDX7+Q96SW2); experiment: NEK7 NanoBiT degradation assay in Cal51 NEK7 NanoBiT cell line; assay type: cell-based; settings: Cal51 NEK7 NanoBiT cells, 24 hours; for Dmax: CAL-51
Summary of the method: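 EC50 comes from a 4-parameter fit of control-normalized luminescence. The luminescence reports HiBiT-NEK7 (endogenous knock-in) complemented by stably expressed LgBiT in Cal51 cells after 24 h compound exposure at 37 °C. Final concentrations ran 1 μM to 0.05 nM, with Endurazine substrate present in the medium throughout.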

[3] = NEK7 degradation, read-out: NanoBiT Dmax
[4] = NEK7 degradation, read-out: NanoBiT DC50

Sequence of CRBN-DDB1 (Q96SW2 whole entry): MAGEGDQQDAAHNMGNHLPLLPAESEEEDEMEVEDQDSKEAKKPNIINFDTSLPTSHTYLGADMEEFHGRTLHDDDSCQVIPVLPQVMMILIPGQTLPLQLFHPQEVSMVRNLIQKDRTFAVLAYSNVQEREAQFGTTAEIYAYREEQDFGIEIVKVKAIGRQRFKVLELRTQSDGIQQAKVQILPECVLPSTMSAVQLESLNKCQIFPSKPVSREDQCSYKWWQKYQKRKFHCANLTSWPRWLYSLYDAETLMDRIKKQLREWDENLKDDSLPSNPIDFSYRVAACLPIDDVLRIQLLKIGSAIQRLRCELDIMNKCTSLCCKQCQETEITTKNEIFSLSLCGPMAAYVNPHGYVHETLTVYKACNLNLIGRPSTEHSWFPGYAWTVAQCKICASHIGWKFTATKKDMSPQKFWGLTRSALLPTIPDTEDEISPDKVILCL
Sequence of CRBN-DDB1 (Q16531 whole entry partner): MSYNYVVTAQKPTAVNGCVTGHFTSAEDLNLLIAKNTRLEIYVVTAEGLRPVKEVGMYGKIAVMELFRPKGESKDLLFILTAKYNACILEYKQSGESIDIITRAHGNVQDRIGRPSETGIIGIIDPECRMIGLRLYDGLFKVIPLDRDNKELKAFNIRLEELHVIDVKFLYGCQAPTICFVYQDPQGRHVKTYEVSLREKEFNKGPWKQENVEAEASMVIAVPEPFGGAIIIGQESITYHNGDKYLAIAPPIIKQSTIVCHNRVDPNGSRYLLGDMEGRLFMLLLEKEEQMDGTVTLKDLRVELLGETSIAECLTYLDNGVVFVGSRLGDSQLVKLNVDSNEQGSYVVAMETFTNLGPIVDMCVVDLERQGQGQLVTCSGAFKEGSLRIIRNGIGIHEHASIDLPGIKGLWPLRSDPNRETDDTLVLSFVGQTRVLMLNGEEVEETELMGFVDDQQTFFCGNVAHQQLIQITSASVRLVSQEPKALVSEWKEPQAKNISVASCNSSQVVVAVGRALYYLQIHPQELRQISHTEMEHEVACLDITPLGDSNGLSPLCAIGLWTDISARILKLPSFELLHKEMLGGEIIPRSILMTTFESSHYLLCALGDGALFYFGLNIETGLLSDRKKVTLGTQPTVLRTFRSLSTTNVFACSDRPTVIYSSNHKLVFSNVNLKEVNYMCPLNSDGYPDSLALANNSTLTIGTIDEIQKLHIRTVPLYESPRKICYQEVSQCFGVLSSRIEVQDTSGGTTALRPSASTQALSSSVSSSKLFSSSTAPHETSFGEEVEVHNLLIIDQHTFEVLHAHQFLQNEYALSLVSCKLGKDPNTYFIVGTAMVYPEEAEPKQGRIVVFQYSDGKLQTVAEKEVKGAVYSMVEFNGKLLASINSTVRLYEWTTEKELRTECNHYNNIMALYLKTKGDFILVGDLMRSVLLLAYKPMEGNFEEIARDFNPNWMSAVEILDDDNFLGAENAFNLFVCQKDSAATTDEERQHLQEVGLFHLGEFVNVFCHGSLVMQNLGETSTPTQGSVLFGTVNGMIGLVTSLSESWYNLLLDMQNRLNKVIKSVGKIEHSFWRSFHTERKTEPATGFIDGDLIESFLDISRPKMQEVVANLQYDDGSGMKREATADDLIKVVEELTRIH
Sequence of NEK7 (Q8TDX7 whole entry): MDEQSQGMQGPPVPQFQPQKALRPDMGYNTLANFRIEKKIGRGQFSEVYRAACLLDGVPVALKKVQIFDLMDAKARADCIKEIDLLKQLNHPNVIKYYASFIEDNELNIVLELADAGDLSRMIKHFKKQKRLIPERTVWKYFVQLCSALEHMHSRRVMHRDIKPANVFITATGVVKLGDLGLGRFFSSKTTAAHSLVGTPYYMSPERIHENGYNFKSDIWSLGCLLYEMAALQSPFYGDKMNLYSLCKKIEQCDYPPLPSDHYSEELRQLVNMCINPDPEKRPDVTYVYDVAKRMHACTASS
Sequence of NEK7 (Q96SW2 whole entry): as the sequence (Q96SW2 whole entry) above
Sequence of NEK7 (Q16531 2-1140 partner): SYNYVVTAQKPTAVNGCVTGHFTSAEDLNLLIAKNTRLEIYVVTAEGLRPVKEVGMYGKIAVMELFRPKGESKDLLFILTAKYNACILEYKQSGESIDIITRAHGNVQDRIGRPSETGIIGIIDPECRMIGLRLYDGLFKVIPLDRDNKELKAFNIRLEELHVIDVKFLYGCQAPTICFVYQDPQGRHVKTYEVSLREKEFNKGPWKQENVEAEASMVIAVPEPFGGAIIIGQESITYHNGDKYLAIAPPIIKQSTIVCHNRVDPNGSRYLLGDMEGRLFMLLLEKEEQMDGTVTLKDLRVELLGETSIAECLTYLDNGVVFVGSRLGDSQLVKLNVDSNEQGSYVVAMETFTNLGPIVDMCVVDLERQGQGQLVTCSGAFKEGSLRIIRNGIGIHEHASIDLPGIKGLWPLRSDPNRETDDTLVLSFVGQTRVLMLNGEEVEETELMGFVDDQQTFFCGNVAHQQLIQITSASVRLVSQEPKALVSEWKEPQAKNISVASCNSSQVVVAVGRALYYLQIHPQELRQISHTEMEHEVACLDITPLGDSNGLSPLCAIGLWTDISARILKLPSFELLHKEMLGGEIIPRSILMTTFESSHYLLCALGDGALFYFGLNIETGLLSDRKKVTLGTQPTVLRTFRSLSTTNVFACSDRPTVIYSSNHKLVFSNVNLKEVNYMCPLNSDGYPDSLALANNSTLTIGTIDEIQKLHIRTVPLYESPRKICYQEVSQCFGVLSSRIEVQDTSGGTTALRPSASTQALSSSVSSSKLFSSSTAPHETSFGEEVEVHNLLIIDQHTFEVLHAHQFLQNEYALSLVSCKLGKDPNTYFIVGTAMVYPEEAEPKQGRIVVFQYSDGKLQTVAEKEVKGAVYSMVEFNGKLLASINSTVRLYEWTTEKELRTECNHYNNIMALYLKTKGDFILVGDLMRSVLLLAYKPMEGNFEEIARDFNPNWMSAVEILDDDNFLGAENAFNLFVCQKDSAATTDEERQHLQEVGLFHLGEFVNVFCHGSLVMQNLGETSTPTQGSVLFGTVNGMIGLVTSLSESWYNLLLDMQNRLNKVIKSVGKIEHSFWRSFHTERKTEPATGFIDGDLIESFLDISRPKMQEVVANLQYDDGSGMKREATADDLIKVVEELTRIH

| Compound | EC50 [1] [µM] | EC50 ([1]; HTRF class, Cereblon binding) [µM] | Dmax ([2]; read-out: NEK7 NanoBiT Dmax) [%] | Dmax [2, 3] [%] | DC50 ([2]; read-out: NEK7 NanoBiT DC50) [µM] | DC50 [2, 4] [µM] |
| --- | --- | --- | --- | --- | --- | --- |
| CC(C)(C(=O)NCc1cc(Cl)c(C2CCC(=O)NC2=O)c(Cl)c1)c1cnc(C(F)F)cn1 (stereo not drawn) [Compound 196] | 0.31 | 0.1 to 1 | 90 | > 75 | 0.009 | ≤ 0.1 |
| Cc1coc(C(C)(C)C(=O)NCc2cc(Cl)c(C3CCC(=O)NC3=O)c(Cl)c2)n1 (stereo not drawn) [Compound 197] | 0.12 | 0.1 to 1 | 87 | > 75 | 0.013 | ≤ 0.1 |
| CC(C)(C(=O)NCc1cc(Cl)c(C2CCC(=O)NC2=O)c(Cl)c1)c1nocc1C1CC1 (stereo not drawn) [Compound 198] | 0.13 | 0.1 to 1 | 83 | > 75 | 0.022 | ≤ 0.1 |
| CC(C)(C(=O)NCc1cc(Cl)c(C2CCC(=O)NC2=O)c(Cl)c1)c1ncoc1C(F)(F)F (stereo not drawn) [Compound 199] | 0.14 | 0.1 to 1 | 67 | 50 to 75 | 0.099 | ≤ 0.1 |
| CC(C)(C(=O)NCc1cc(Cl)c(C2CCC(=O)NC2=O)c(Cl)c1)c1nnc(C(F)F)o1 (stereo not drawn) [Compound 200] | 0.17 | 0.1 to 1 | 74 | 50 to 75 | 0.046 | ≤ 0.1 |
| Cc1conc1C(C)(C)C(=O)NCc1cc(Cl)c(C2CCC(=O)NC2=O)c(Cl)c1 (stereo not drawn) [Compound 201] | 0.14 | 0.1 to 1 | 93 | > 75 | 0.007 | ≤ 0.1 |
| CC(C)(O)c1ccc(C(C)(C)C(=O)NCc2cc(Cl)c(C3CCC(=O)NC3=O)c(Cl)c2)nn1 (stereo not drawn) [Compound 203] | 0.2 | 0.1 to 1 | 94 | > 75 | 0.004 | ≤ 0.1 |
| CC1(c2cnc(C(C)(C)C(=O)NCc3cc(Cl)c(C4CCC(=O)NC4=O)c(Cl)c3)nc2)CC1 (stereo not drawn) [Compound 207] | 0.09 | ≤ 0.1 | 82 | > 75 | 0.019 | ≤ 0.1 |
| COc1cnc(C(C)(C)C(=O)NCc2cc(Cl)c(C3CCC(=O)NC3=O)c(Cl)c2)cn1 (stereo not drawn) [Compound 209] | 0.09 | ≤ 0.1 | 97 | > 75 | 0.001 | ≤ 0.1 |
| CC(C)(C(=O)NCc1cc(Cl)c(C2CCC(=O)NC2=O)c(Cl)c1)c1ccc(OC(F)F)nn1 (stereo not drawn) [Compound 210] | 0.46 | 0.1 to 1 | 96 | > 75 | 0.002 | ≤ 0.1 |

More lines, in order of falling EC50 [1], values ahead:

| EC50 [1] [µM] | EC50 ([1]; HTRF class, Cereblon binding) [µM] | Dmax ([2]; read-out: NEK7 NanoBiT Dmax) [%] | Dmax [2, 3] [%] | DC50 ([2]; read-out: NEK7 NanoBiT DC50) [µM] | DC50 [2, 4] [µM] | Compound |
| --- | --- | --- | --- | --- | --- | --- |
| 0.22 | 0.1 to 1 | 63 | 50 to 75 | 0.138 | 0.1 to 1 | CC(C)(C(=O)NCc1cc(Cl)c(C2CCC(=O)NC2=O)c(Cl)c1)c1ncc(CC(F)(F)F)cn1 (stereo not drawn) [Compound 195] |
| 0.17 | 0.1 to 1 | 56 | 50 to 75 | 0.345 | 0.1 to 1 | CC(C)(C(=O)NCc1cc(Cl)c(C2CCC(=O)NC2=O)c(Cl)c1)c1nnc(C(F)(F)F)o1 (stereo not drawn) [Compound 208] |
| 0.11 | 0.1 to 1 | 97 | > 75 | 0.001 | ≤ 0.1 | Cc1ccc(C(C)(C)C(=O)NCc2cc(Cl)c(C3CCC(=O)NC3=O)c(Cl)c2)cn1 (stereo not drawn) [Compound 205] |
| 0.1 | 0.1 to 1 | 85 | > 75 | 0.018 | ≤ 0.1 | CC(C)(C(=O)NCc1cc(Cl)c(C2CCC(=O)NC2=O)c(Cl)c1)c1cnc(CO)cn1 (stereo not drawn) [Compound 206] |
| 0.08 | ≤ 0.1 | 98 | > 75 | 0.001 | ≤ 0.1 | COc1ccc(C(C)(C)C(=O)NCc2cc(Cl)c(C3CCC(=O)NC3=O)c(Cl)c2)nn1 (stereo not drawn) [Compound 204] |
